Experimental data from patent US20240381872A1, “SUBSTITUTED 2,3-DIHYDRO[1,3]THIAZOLO[4,5-B]PYRIDINES, SALTS THEREOF AND THEIR USE AS HERBICIDALLY ACTIVE SUBSTANCES” (BAYER AKTIENGESELLSCHAFT, priority 2021, published 2024).

Assays:
Type in all cases: in vivo
Poa annua (POAAN) = test: Herbicidal post-emergence action, section B (Table B7); conditions: visual rating about 3 weeks after treatment vs untreated controls
Procedure, shortened: (§1)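 Under optimum greenhouse conditions, sandy-loam-grown weeds at the one-leaf stage are sprayed with aqueous suspension or emulsion carrying 0.5% additive, 600 liters per hectare. About 3 weeks later, visual percent activity is scored relative to untreated controls.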

Veronica persica (VERPE) = test: Herbicidal post-emergence action, section B (Table B10); conditions: visual rating about 3 weeks after treatment vs untreated controls
Procedure, shortened: as §1

[1] = tested on: Digitaria sanguinalis (DIGSA); test: Herbicidal post-emergence action, section B (Table B12); conditions: application rate 1280 g/ha, visual rating about 3 weeks after treatment vs untreated controls
Procedure, shortened: as §1

Lolium rigidum (LOLRI) = test: Herbicidal pre-emergence action, section C (Table C5); conditions: visual grading after ca. 3 weeks; for pest or weed control at 80 g/ha: Lolium rigidum, pre-emergence, 504 h, application rate 80 g/ha, read-out: pre-emergence activity against LOLRI in %; for pre-emergence activity against LOLRI in %: application rate 320 g/ha
From the text: Seeds of mono- and dicotyledonous weed plants and crop plants were sown, in plastic or organic planting pots, in sandy loam and covered with soil. The compounds according to the invention, formulated in the form of wettable powders (WP) or as emulsifiable concentrates (EC), were applied to the surface of the covering soil as aqueous suspension or emulsion, with the addition of 0.5% of an additive, at an application rate of 600 l of water/ha (converted). Following treatment, the pots were placed in a greenhouse and kept under optimum growth conditions for the test plants. The visual grading of the damage to the test plants was carried out after ca. 3 weeks in comparison to untreated controls (herbicidal effect in percent (%): 100% effect=plants have died off, 0% effect=as control plants).

Setaria viridis (SETVI) = test: Herbicidal pre-emergence action, section C (Table C8); conditions: visual grading after ca. 3 weeks; for pest or weed control at 80 g/ha: Setaria viridis, pre-emergence, 504 h, read-out: pre-emergence activity against SETVI in %
Procedure, shortened: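 Weed and crop seeds sown in sandy loam, covered with soil, then WP or EC formulations sprayed onto the soil surface as aqueous suspension/emulsion with 0.5% additive at 600 l water/ha. Kept in greenhouse under optimum conditions; damage graded visually after ca. 3 weeks versus untreated controls (0% = as control, 100% = plants dead).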

Glycine max (GLXMA) = test: Pre-emergence effects on crop plants, section D (Table D4); conditions: application rate 80 g/ha; visual grading after ca. 3 weeks
Procedure, shortened: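 Seeds sown in sandy loam and covered with soil; WP or EC formulations applied to the covering soil surface as aqueous suspension/emulsion with 0.5% additive at 600 l water/ha, at 320 g/ha or below. Greenhouse growth; visual damage scored after ca. 3 weeks versus untreated controls (0% = as control, 100% = dead).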

[2] = tested on: Alopecurus myosuroides (ALOMY); test: Herbicidal post-emergence action, section E (Table E2); conditions: application rate 320 g/ha, assessed visually after ca. 3 weeks; for pest or weed control at 320 g/ha: Alopecurus myosuroides, post-emergence, 504 h, read-out: post-emergence activity against ALOMY in %
From the text: Seeds of mono- and dicotyledonous weed plants and crop plants were sown, in plastic or organic planting pots, in sandy loam, covered with soil and grown in a greenhouse under controlled growth conditions. 2 to 3 weeks after sowing, the test plants were sprayed in the single-leaf stage. The compounds according to the invention, formulated in form of wettable powders (WP) or as emulsifiable concentrates (EC), were sprayed onto the green plant parts as aqueous suspension or emulsion, with the addition of 0.5% of an additive, at an application rate of 600 l of water/ha (converted). The test plants were placed in the greenhouse for ca. 3 weeks under optimum growth conditions, and then the effect of the preparations was assessed visually in comparison with untreated controls (herbicidal effect in percent (%): 100% effect=plants have died off, 0% effect=as control plants).

Oryza sativa (ORYZA) = test: Post-emergence effects on crop plants, section F (Table F3); conditions: for post-emergence activity against ORYZA in %: crop plant damage, application rate 320 g/ha
Procedure, shortened: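 Crops grown in sandy loam in the greenhouse were sprayed post-emergence at the single-leaf stage, 2-3 weeks after sowing. Compounds were formulated as WP or EC with 0.5% additive and applied in 600 l water/ha at 320 g/ha or below. Damage was scored visually about 3 weeks later as % effect versus untreated controls (100% = dead).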

| Structure (SMILES) | post-emergence activity against POAAN in % (Poa annua (POAAN); application rate 320 g/ha) [%] | post-emergence activity against VERPE in % (Veronica persica (VERPE); application rate 320 g/ha) [%] | post-emergence activity against DIGSA in % [1] [%] | pre-emergence activity against LOLRI in % (Lolium rigidum (LOLRI)) [%] | pre-emergence activity against SETVI in % (Setaria viridis (SETVI); application rate 80 g/ha) [%] | post-emergence activity against ALOMY in % [2] [%] | pre-emergence activity against SETVI in % (Setaria viridis (SETVI); application rate 320 g/ha) [%] | also measured |
| --- | --- | --- | --- | --- | --- | --- | --- | --- |
| CCOCCS(=O)(=O)N1C[S+]([O-])c2cc(C)c(-c3ccccc3F)nc21 (stereo not drawn) [Example I-127] |  |  |  |  |  |  |  | pest or weed control at 320 g/ha (Poa annua (POAAN); Poa annua, post-emergence, 504 h, application rate 320 g/ha, read-out: post-emergence activity against POAAN in %): 90%; pest or weed control at 1280 g/ha (Veronica persica (VERPE); Veronica persica, post-emergence, 504 h, application rate 1280 g/ha, read-out: post-emergence activity against VERPE in %): 90%; pest or weed control at 1280 g/ha ([1]; Digitaria sanguinalis, post-emergence, 504 h, read-out: post-emergence activity against DIGSA in %): 90%; pest or weed control at 80 g/ha (Lolium rigidum (LOLRI)): 80%; pest or weed control at 80 g/ha (Setaria viridis (SETVI); application rate 80 g/ha): 100%; pre-emergence activity against GLXMA in % (crop plant damage) (Glycine max (GLXMA)): 20%; pest or weed control at 320 g/ha [2]: 90% |
| Cc1cc2c(nc1-c1ccccc1F)NCS2 [Example I-007, 5-(2-fluorophenyl)-6-methyl-2,3-dihydro[1,3]thiazolo[4,5-b]pyridine] |  |  |  |  |  |  |  | pest or weed control at 1280 g/ha (Poa annua (POAAN); Poa annua, post-emergence, 504 h, application rate 1280 g/ha, read-out: post-emergence activity against POAAN in %): 90%; pest or weed control at 320 g/ha (Veronica persica (VERPE); Veronica persica, post-emergence, 504 h, application rate 320 g/ha, read-out: post-emergence activity against VERPE in %): 90%; pest or weed control at 80 g/ha (Lolium rigidum (LOLRI)): 100%; pest or weed control at 80 g/ha (Setaria viridis (SETVI); application rate 80 g/ha): 100%; pest or weed control at 320 g/ha [2]: 90%; percent crop plant damage at 80 g/ha (Oryza sativa (ORYZA); Oryza sativa, 504 h, application rate 80 g/ha, read-out: post-emergence activity against ORYZA in %): 10% |
| Cc1cc2c(nc1-c1ccccc1F)N(C(=O)C13CCCC1C(Cl)=NO3)CS2 (stereo not drawn) [Example I-104] | 90 | 90 | 90 | 100 | 100 | 80 |  |  |
| CC1(C(=O)N2CSc3cc(Br)c(-c4ccccc4)nc32)CC(Cl)=NO1 (stereo not drawn) [Example I-139] | 90 |  | 90 | 80 |  | 80 | 100 | post-emergence activity against VERPE in % (Veronica persica (VERPE); application rate 1280 g/ha): 90% |
| Cc1cc2c(nc1-c1ccccc1F)N(S(=O)(=O)Cc1ccc(F)cc1)CS2 [Example I-122] | 90 | 90 | 90 | 100 |  | 90 | 100 | pre-emergence activity against GLXMA in % (crop plant damage) (Glycine max (GLXMA)): 10% |
| Cc1ccccc1-c1nc2c(cc1C)SCN2C(=O)C1(C)CC(Cl)=NO1 (stereo not drawn) [Example I-137] | 90 |  | 90 | 100 | 100 | 80 |  | post-emergence activity against VERPE in % (Veronica persica (VERPE); application rate 1280 g/ha): 90% |
| COC(=O)CCC(=O)N1CSc2cc(Cl)c(-c3ccccc3F)nc21 [Example I-003] | 100 | 100 | 100 |  |  | 80 | 100 | post-emergence activity against ORYZA in % (Oryza sativa (ORYZA)): 0% |
| Cc1cc2c(nc1-c1ccccc1F)N(C(=O)C1(C)CC(Cl)=NO1)CS2 (stereo not drawn) [Example I-083] | 90 | 90 | 90 | 80 | 100 | 90 |  | post-emergence activity against ORYZA in % (Oryza sativa (ORYZA)): 10% |
